From ChEMBL document CHEMBL4507275, “Data for DCP probe BI-2545” (2021)

How the values were obtained:
[1] = target: MAP kinase-interacting serine/threonine-protein kinase 2 (Homo sapiens) (UniProt Q9HBH9); details: Compound concentration 1000.0 nM
[2] = target: Cyclin-dependent kinase 4 (Homo sapiens) (UniProt P11802); details: Compound concentration 1000.0 nM
[3] = target: Serine/threonine-protein kinase PAK 3 (Homo sapiens) (UniProt O75914); details: Compound concentration 1000.0 nM
[4] = test system: eIF-2-alpha kinase GCN2 (Homo sapiens), Q9P2K8 [S808G]; details: Compound concentration 1000.0 nM
[5] = target: Cyclin-dependent kinase 14 (Homo sapiens) (UniProt O94921); details: Compound concentration 1000.0 nM
Chain of Cyclin-dependent kinase 14 (Homo sapiens) (O94921 whole entry): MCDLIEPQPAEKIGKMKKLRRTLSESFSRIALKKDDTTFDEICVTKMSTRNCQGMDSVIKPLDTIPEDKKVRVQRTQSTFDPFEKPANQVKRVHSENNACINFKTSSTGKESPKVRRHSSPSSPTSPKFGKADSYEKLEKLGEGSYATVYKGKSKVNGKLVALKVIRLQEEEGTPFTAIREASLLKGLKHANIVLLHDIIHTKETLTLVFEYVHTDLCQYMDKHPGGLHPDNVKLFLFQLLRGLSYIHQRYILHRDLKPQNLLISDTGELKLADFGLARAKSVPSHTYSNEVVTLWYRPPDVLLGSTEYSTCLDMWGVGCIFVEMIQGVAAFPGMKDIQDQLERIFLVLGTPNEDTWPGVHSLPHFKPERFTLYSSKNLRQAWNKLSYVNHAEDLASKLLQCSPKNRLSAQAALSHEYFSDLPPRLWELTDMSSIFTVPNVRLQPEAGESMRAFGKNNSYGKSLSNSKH

[6] = target: Tyrosine-protein kinase HCK (Homo sapiens) (UniProt P08631); details: Compound concentration 1000.0 nM
[7] = target: Activin receptor type-2A (Homo sapiens) (UniProt P27037); details: Compound concentration 1000.0 nM
[8] = target: cAMP-dependent protein kinase catalytic subunit alpha (Homo sapiens) (UniProt P17612); details: Compound concentration 1000.0 nM
[9] = target: Dual serine/threonine and tyrosine protein kinase (Homo sapiens) (UniProt Q6XUX3); details: Compound concentration 1000.0 nM
[10] = target: Epithelial discoidin domain-containing receptor 1 (Homo sapiens) (UniProt Q08345); details: Compound concentration 1000.0 nM
Chain of Epithelial discoidin domain-containing receptor 1 (Homo sapiens) (Q08345 whole entry, the tested form may be a part): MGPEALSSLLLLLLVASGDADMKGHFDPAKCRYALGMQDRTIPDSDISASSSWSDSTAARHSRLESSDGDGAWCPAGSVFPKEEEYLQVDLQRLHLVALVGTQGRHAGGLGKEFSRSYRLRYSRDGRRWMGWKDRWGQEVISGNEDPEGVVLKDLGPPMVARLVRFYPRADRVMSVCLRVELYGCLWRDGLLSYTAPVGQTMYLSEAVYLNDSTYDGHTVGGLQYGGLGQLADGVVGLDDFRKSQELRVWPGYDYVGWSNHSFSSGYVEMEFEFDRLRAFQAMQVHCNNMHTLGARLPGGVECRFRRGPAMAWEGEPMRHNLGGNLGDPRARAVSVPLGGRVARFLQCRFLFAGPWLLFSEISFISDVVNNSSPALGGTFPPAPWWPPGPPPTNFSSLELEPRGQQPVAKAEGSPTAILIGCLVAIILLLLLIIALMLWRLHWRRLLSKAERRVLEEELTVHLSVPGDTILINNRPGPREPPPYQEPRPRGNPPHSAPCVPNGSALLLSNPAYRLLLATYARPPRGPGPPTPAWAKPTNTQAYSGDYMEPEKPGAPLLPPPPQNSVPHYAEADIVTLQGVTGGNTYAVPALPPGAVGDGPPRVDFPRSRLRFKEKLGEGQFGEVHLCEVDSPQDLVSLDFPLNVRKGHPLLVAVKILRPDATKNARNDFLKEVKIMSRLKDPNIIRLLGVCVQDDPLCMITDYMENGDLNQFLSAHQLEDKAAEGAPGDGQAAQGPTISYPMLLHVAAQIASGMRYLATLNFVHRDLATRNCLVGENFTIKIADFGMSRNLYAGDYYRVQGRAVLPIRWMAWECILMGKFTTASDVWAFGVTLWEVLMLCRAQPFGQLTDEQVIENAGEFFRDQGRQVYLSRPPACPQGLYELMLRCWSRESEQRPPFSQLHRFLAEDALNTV

[11] = target: Dual specificity mitogen-activated protein kinase kinase 4 (Homo sapiens) (UniProt P45985); details: Compound concentration 1000.0 nM
Chain of Dual specificity mitogen-activated protein kinase kinase 4 (Homo sapiens) (P45985 whole entry): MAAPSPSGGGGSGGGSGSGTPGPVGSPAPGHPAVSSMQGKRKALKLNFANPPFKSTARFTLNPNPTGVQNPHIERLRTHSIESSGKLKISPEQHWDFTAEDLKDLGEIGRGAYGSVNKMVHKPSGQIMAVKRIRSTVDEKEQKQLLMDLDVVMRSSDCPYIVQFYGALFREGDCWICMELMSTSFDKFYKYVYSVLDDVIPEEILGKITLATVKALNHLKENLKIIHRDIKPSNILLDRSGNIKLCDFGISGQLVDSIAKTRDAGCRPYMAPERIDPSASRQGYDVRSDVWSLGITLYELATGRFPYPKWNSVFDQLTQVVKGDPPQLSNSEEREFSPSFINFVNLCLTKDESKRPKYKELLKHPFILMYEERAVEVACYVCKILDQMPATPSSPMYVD

[12] = target: Serine/threonine-protein kinase/endoribonuclease IRE1 (Homo sapiens) (UniProt O75460); details: Compound concentration 1000.0 nM
[13] = target: T1, Alpha-1A adrenergic receptor (Homo sapiens) (UniProt P35348); details: Compound concentration 10.0 uM
T1 sequence (whole entry): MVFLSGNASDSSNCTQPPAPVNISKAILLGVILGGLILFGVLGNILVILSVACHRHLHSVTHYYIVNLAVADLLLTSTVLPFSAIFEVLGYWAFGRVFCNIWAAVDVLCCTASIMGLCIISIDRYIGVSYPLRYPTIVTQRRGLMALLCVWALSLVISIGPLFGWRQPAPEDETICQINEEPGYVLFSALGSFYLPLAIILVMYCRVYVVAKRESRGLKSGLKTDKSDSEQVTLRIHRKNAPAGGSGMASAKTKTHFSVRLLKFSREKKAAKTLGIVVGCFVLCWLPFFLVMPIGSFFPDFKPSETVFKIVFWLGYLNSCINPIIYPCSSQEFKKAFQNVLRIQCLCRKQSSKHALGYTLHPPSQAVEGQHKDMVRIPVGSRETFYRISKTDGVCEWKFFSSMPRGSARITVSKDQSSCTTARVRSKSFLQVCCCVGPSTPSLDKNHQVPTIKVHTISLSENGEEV

[14] = target: Glycogen synthase kinase-3 alpha (Homo sapiens) (UniProt P49840); details: Compound concentration 1000.0 nM
[15] = target: T2, 5-hydroxytryptamine receptor 1A (Homo sapiens) (UniProt P08908); details: Compound concentration 10.0 uM
T2 sequence (whole entry): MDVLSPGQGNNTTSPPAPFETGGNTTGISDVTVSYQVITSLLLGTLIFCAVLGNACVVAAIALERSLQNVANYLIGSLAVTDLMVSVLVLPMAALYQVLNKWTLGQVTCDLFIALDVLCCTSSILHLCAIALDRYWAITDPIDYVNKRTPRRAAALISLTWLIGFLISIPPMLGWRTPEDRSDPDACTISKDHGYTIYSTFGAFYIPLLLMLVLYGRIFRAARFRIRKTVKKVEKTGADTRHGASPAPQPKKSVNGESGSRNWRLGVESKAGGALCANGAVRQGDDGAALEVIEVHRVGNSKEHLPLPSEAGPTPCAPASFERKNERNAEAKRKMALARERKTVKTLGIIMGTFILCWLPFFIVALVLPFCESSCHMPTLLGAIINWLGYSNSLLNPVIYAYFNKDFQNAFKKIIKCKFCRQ

[16] = target: Homeodomain-interacting protein kinase 4 (Homo sapiens) (UniProt Q8NE63); details: Compound concentration 1000.0 nM
[17] = target: Alpha-1B adrenergic receptor (Homo sapiens) (UniProt P35368); details: Compound concentration 10.0 uM
Chain of Alpha-1B adrenergic receptor (Homo sapiens) (P35368 whole entry): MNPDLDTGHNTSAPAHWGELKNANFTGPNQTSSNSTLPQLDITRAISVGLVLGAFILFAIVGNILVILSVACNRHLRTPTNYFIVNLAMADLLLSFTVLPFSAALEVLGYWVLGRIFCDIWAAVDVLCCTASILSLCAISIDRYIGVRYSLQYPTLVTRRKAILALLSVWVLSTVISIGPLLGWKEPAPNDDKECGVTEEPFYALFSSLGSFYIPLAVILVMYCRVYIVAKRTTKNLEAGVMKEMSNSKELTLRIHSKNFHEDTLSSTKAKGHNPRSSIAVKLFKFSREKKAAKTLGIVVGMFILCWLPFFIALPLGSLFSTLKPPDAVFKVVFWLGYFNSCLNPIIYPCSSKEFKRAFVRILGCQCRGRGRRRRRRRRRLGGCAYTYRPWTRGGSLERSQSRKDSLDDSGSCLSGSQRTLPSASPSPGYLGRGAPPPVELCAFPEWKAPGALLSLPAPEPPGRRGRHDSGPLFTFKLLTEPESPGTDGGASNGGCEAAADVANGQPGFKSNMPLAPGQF

[18] = target: Cyclin-dependent kinase 2 homolog (Plasmodium falciparum (isolate 3D7)) (UniProt P61075); details: Compound concentration 1000.0 nM
[19] = target: Serine/threonine-protein kinase TAO1 (Homo sapiens) (UniProt Q7L7X3); details: Compound concentration 1000.0 nM
[20] = target: Receptor-interacting serine/threonine-protein kinase 4 (Homo sapiens) (UniProt P57078); details: Compound concentration 1000.0 nM
[21] = test system: Fibroblast growth factor receptor 3 (Homo sapiens), P22607 [G697C]; details: Compound concentration 1000.0 nM
Chain of Fibroblast growth factor receptor 3 (Homo sapiens), P22607 [G697C] (P22607 whole entry G697C): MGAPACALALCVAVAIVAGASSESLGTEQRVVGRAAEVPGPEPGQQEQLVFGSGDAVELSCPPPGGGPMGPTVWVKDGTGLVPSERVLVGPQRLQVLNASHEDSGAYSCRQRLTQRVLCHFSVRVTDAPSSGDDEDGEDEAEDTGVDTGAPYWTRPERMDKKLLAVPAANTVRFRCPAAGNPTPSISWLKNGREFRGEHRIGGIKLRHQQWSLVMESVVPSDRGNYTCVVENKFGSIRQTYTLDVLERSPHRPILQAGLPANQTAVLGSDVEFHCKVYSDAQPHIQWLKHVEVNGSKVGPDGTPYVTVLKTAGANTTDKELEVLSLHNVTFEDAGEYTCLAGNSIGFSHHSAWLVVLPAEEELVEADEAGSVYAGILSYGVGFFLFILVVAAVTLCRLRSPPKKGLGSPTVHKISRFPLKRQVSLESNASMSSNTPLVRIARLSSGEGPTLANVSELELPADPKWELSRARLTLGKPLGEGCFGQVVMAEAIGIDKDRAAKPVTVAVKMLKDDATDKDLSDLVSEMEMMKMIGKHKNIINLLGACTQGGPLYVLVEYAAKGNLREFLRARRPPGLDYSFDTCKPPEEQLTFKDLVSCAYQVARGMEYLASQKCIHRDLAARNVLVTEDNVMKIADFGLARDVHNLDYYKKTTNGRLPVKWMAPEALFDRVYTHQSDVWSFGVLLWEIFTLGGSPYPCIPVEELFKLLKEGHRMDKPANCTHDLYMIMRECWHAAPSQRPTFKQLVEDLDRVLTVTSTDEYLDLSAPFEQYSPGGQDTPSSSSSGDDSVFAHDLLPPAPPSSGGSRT

[22] = target: MAP kinase-interacting serine/threonine-protein kinase 1 (Homo sapiens) (UniProt Q9BUB5); details: Compound concentration 1000.0 nM
[23] = target: Tyrosine-protein kinase Yes (Homo sapiens) (UniProt P07947); details: Compound concentration 1000.0 nM
[24] = target: Ephrin type-A receptor 5 (Homo sapiens) (UniProt P54756); details: Compound concentration 1000.0 nM
[25] = target: Cyclin-dependent kinase 17 (Homo sapiens) (UniProt Q00537); details: Compound concentration 1000.0 nM
[26] = target: Serine/threonine-protein kinase WNK2 (Homo sapiens) (UniProt Q9Y3S1); details: Compound concentration 1000.0 nM
[27] = target: Interferon-induced, double-stranded RNA-activated protein kinase (Homo sapiens) (UniProt P19525); details: Compound concentration 1000.0 nM
Chain of Interferon-induced, double-stranded RNA-activated protein kinase (Homo sapiens) (P19525 whole entry): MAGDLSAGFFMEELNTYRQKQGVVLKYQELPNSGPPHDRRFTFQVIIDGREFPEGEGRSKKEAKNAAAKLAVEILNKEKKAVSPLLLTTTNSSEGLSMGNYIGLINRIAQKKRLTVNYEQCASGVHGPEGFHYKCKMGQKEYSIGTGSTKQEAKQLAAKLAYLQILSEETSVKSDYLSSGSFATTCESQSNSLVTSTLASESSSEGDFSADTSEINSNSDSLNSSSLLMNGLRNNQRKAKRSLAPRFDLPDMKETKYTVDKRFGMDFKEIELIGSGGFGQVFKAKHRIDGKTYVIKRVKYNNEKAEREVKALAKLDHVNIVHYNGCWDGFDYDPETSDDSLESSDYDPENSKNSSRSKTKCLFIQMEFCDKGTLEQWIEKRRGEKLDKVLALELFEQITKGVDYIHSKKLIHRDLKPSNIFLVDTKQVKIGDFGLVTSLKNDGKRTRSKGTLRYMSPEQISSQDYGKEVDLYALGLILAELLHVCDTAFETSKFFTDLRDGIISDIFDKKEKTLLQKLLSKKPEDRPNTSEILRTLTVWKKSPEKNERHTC

[28] = target: Serine/threonine-protein kinase TBK1 (Homo sapiens) (UniProt Q9UHD2); details: Compound concentration 1000.0 nM
[29] = target: Mitogen-activated protein kinase kinase kinase kinase 1 (Homo sapiens) (UniProt Q92918); details: Compound concentration 1000.0 nM
[30] = target: Histamine H2 receptor (Homo sapiens) (UniProt P25021); details: Compound concentration 10.0 uM
[31] = target: Mitogen-activated protein kinase 4 (Homo sapiens) (UniProt P31152); details: Compound concentration 1000.0 nM
Chain of Mitogen-activated protein kinase 4 (Homo sapiens) (P31152 whole entry): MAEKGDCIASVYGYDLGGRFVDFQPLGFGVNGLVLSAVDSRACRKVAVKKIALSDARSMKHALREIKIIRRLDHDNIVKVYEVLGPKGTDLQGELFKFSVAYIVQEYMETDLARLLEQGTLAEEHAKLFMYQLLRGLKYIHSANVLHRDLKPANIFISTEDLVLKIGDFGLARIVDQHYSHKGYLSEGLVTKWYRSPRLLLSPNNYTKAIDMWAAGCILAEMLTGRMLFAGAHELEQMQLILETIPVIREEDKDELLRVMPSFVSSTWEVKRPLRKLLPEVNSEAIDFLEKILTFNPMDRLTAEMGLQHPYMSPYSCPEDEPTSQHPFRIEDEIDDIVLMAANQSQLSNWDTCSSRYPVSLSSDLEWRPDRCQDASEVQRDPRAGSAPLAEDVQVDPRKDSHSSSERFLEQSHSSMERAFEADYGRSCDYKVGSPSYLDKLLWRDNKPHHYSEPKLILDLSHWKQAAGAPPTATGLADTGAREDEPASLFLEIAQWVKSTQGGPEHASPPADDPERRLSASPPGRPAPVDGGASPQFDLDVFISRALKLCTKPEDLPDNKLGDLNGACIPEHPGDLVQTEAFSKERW

[32] = target: Myosin-IIIa (Homo sapiens) (UniProt Q8NEV4); details: Compound concentration 1000.0 nM
[33] = target: Serine/threonine-protein kinase pim-2 (Homo sapiens) (UniProt Q9P1W9); details: Compound concentration 1000.0 nM
Chain of Serine/threonine-protein kinase pim-2 (Homo sapiens) (Q9P1W9 whole entry, looked up): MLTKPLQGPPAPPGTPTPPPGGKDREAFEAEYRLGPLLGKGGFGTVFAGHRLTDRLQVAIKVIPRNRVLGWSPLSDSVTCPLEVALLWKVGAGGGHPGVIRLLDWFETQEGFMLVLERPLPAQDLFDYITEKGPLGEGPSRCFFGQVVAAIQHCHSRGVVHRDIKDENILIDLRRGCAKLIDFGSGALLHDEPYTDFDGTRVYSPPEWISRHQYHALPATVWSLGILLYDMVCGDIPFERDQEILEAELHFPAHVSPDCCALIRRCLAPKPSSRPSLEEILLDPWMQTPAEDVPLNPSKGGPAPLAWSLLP

Chain of MAP kinase-interacting serine/threonine-protein kinase 2 (Homo sapiens) (Q9HBH9 whole entry, looked up): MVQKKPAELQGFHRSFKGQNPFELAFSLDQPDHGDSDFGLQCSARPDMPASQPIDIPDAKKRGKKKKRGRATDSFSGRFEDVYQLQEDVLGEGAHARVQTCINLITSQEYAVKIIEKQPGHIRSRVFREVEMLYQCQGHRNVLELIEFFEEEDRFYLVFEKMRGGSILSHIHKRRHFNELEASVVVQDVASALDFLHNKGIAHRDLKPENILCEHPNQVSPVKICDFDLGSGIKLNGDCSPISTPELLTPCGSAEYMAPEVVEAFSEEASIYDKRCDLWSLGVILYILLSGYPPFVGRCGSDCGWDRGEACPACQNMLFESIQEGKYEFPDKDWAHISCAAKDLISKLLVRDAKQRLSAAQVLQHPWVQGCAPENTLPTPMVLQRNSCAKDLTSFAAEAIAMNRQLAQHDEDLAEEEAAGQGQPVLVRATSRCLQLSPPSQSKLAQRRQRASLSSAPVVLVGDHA

SMILES	residual activity [1] [%]	residual activity [2] [%]	residual activity [3] [%]	residual activity [4] [%]	residual activity [5] [%]	residual activity [6] [%]	residual activity [7] [%]	residual activity [8] [%]	residual activity [9] [%]	residual activity [10] [%]	residual activity [11] [%]	residual activity [12] [%]	inhibition [13] [%]	residual activity [14] [%]	inhibition [15] [%]	residual activity [16] [%]	inhibition [17] [%]	residual activity [18] [%]	residual activity [19] [%]	residual activity [20] [%]	further results
Cc1nccc(COC(=O)N2C[C@@H]3[C@@H](CNC(=O)c4ccc5[nH]nnc5c4)[C@@H]3C2)n1 [BI 3017]	90	80	75	84	100	99	69	88	69	100	100	90	-3.15	82	-7.66	84	30.2	85	85	98	residual activity [21]: 97%; residual activity [22]: 91%; residual activity [23]: 100%; residual activity [24]: 93%; residual activity [25]: 90%; residual activity [26]: 79%; residual activity [27]: 100%; residual activity [28]: 96%; residual activity [29]: 100%; inhibition [30]: -0.15%; residual activity [31]: 94%; residual activity [32]: 99%; residual activity [33]: 0%
O=C(NC[C@@H]1[C@H]2CN(C(=O)OCc3cc(C(F)(F)F)cc(C(F)(F)F)c3)C[C@@H]12)c1ccc2[nH]nnc2c1 [BI 2545]	90	95	100	84	96	100	92	100	82	83	95	77	4.06	99	0.91	100	33.4	100	78	100	residual activity [21]: 92%; residual activity [22]: 90%; residual activity [23]: 100%; residual activity [24]: 100%; residual activity [25]: 100%; residual activity [26]: 84%; residual activity [27]: 45%; residual activity [28]: 100%; residual activity [29]: 83%; inhibition [30]: 28.1%; residual activity [31]: 80%; residual activity [32]: 98%; residual activity [33]: 100%
